The target in this assay is T1, prostacyclin receptors (IP receptors) (Homo sapiens, UniProt P43119).
T1 construct: Thrombocyte membranes are obtained by centrifuging 50 ml of human blood; tissue Maco Pharma, Langen (buffy coats); host or cells: human thrombocyte (platelet) membranes from blood buffy coats
Nature of the assay: Binding to prostacyclin receptors (IP receptors) of human thrombocyte membranes. The following applies: displacement of 3 nM 3H-Iloprost, 60 min, room temperature. Here is the method:
Thrombocyte membranes are obtained by centrifuging 50 ml of human blood (Buffy coats with CDP Stabilizer, from Maco Pharma, Langen) for 20 min at 160×g. Remove the supernatant (platelet-rich plasma, PRP) and then centrifuge again at 2000×g for 10 min at room temperature. Resuspend the sediment in 50 mM tris(hydroxymethyl)amino-methane, which has been adjusted to a pH of 7.4 with 1 N hydrochloric acid, and store at −20° C. overnight. On the next day, centrifuge the suspension at 80 000×g and 4° C. for 30 min. Discard the supernatant. Resuspend the sediment in 50 mM tris(hydroxy-methyl)aminomethane/hydrochloric acid, 0.25 mM ethylene diamine tetraacetic acid (EDTA), pH 7.4, and then centrifuge once again at 80 000×g and 4° C. for 30 min. Take up the membrane sediment in binding buffer (50 mM tris(hydroxymethyl)-aminomethane/hydrochloric acid, 5 mM magnesium chloride, pH 7.4) and store at −70° C. until the binding test.
For the binding test, incubate 3 nM ^3H-Iloprost (592 GBq/mmol, from AmershamBioscience) for 60 min with 300-1000 μg/ml of human thrombocyte membranes per charge (max. 0.2 ml) in the presence of the test substances at room temperature. After stopping, add cold binding buffer to the membranes and wash with 0.1% bovine serum albumin. After adding Ultima Gold Scintillator, quantify the radioactivity bound to the membranes using a scintillation counter. The nonspecific binding is defined as radioactivity in the presence of 1 μM Iloprost (from Cayman Chemical, Ann Arbor) and is as a rule <25% of the bound total radioactivity. The binding data (IC50 values) are determined using the program GraphPad Prism Version 3.02.

T1 sequence (P43119 whole entry): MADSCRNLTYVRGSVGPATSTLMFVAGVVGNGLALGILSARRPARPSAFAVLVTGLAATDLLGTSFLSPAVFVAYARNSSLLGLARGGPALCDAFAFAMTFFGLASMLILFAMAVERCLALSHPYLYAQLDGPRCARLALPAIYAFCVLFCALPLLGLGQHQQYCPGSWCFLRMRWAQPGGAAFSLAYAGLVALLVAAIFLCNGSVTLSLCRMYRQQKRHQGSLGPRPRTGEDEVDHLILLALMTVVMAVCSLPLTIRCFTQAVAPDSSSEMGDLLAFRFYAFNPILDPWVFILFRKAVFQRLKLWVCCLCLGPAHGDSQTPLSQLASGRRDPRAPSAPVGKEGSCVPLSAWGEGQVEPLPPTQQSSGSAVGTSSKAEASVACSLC

Take `C=Cc1ccc(-c2c(-c3ccccc3)oc3ncnc(NCCCCCC(=O)OC)c23)nc1` [Example 3, Methyl 6-{[6-phenyl-5-(5-vinylpyridin-2-yl)furo[2,3-d]pyrimidin-4-yl]amino}hexanoate]: the IC50 (as a rule, the concentration needed to halve the response being measured) stood at 105 nM. As for `CCc1ccc(-c2c(-c3ccccc3)oc3ncnc(NCCCCCC(=O)O)c23)nc1` [Example 18], the IC50 was found to be 125 nM. `COc1ccc(-c2c(-c3ccccn3)oc3ncnc(O[C@H](C)CCCCC(=O)O)c23)cc1` [Example 21]: the half-maximal inhibitory concentration (IC50) stood at 53 nM. Against the preceding compound, the IC50 is about 2.4-fold lower. Turning to `COc1ccc(-c2c(C3=CCCCC3)oc3ncnc(O[C@H](C)CCCCC(=O)O)c23)cc1` [Example 24], the IC50 turned out to be 72 nM. `CC1CC=C(c2c(-c3ccccc3)oc3ncnc(O[C@H](C)CCCCC(=O)O)c23)CC1` (stereo partly drawn) [Example 26, (6R)-6-{[5-(4-Methylcyclohex-1-en-1-yl)-6-phenylfuro[2,3-d]pyrimidin-4-yl]oxy}heptanoic acid] showed an IC50 of 1870 nM.

With `COc1ccc(-c2c(-c3cccs3)oc3ncnc(NCCCCCC(=O)O)c23)cc1` [Example 32, 6-{[5-(4-Methoxyphenyl)-6-(2-thienyl)furo[2,3-d]pyrimidin-4-yl]amino}hexanoic acid], the IC50 was 134 nM. `CCOC(=O)COC[C@@H](C)COc1ncnc2oc(-c3ccccn3)c(-c3ccc(OC)cc3)c12` [Example 37]: the IC50 was 56 nM. This IC50 lies about 2.4-fold lower than the previous one.

`CCc1ccc(-c2c(-c3ccccc3)oc3ncnc(OC[C@H](C)COCC(=O)O)c23)nc1` [Example 46] displayed an IC50 of 63 nM.

`COc1ccc(-c2c(-c3ncccc3F)oc3ncnc(O[C@H](C)CCCCC(=O)O)c23)cc1` [Example 48] yielded an IC50 of 121 nM. This IC50 lies about 1.9-fold higher than the previous one. Consider `CCc1ccc(-c2c(-c3ccccn3)oc3ncnc(O[C@H](C)CCCCC(=O)O)c23)cc1` [Example 49], for which the IC50 was 19 nM.

`CCc1ccc(-c2c(-c3ccccn3)oc3ncnc(OC[C@H](C)OCCC(=O)O)c23)cc1` [Example 51]: the IC50 came to 193 nM.

(Values after patent publication US20110166163A1, “SUBSTITUTED FUROPYRIMIDINES AND USE THEREOF” (BAYER SCHERING PHARMA AKTIENGESELLSCHAFT, priority 2007, published 2011).)
